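Each compound was tested at five concentrations against cells in 96-well plates for 48 hours. At the TGI there is no net growth.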
Columns and labels:
Experiment in all cases: NCI anticancer screen, dose series, 48 h
SF-268 CNS = system: SF-268 CNS
SK-MEL-28 melanoma = system: SK-MEL-28 melanoma
CAKI-1 renal = system: CAKI-1 renal
HT29 colon = system: HT29 colon
NCI-H522 lung = system: NCI-H522 lung
DMS 273 small cell lung = system: DMS 273 small cell lung
KM12 colon = system: KM12 colon
SN12C renal = system: SN12C renal
COLO 205 colon = system: COLO 205 colon
SK-MEL-2 melanoma = system: SK-MEL-2 melanoma
HOP-92 NSCLC = system: HOP-92 NSCLC
XF 498 CNS = system: XF 498 CNS
SNB-75 CNS = system: SNB-75 CNS
ACHN renal = system: ACHN renal
OVCAR-4 ovarian = system: OVCAR-4 ovarian
UO-31 renal = system: UO-31 renal
U251 CNS = system: U251 CNS
UACC-257 melanoma = system: UACC-257 melanoma
NCI-H460 lung = system: NCI-H460 lung
K-562 leukemia = system: K-562 leukemia
TK-10 renal = system: TK-10 renal
MOLT-4 leukemia = system: MOLT-4 leukemia
DMS 114 small cell lung = system: DMS 114 small cell lung
SR leukemia = system: SR leukemia
RXF 393 renal = system: RXF 393 renal
786-0 renal = system: 786-0 renal
M14 melanoma = system: M14 melanoma
MALME-3M melanoma = system: MALME-3M melanoma
SW-620 colon = system: SW-620 colon
EKVX NSCLC = system: EKVX NSCLC
SF-295 CNS = system: SF-295 CNS
NCI-H226 lung = system: NCI-H226 lung
LXFL 529 NSCLC = system: LXFL 529 NSCLC
HL-60(TB) leukemia = system: HL-60(TB) leukemia
KM20L2 colon = system: KM20L2 colon
HCC-2998 colon = system: HCC-2998 colon
DLD-1 colon = system: DLD-1 colon
UACC-62 melanoma = system: UACC-62 melanoma
NCI-H23 lung = system: NCI-H23 lung
CCRF-CEM leukemia = system: CCRF-CEM leukemia
OVCAR-8 ovarian = system: OVCAR-8 ovarian
RPMI-8226 leukemia = system: RPMI-8226 leukemia
HCT-15 colon = system: HCT-15 colon
HOP-18 NSCLC = system: HOP-18 NSCLC
HCT-116 colon = system: HCT-116 colon
A549 NSCLC = system: A549 NSCLC
SNB-19 CNS = system: SNB-19 CNS
OVCAR-3 ovarian = system: OVCAR-3 ovarian
SF-539 CNS = system: SF-539 CNS
HOP-62 NSCLC = system: HOP-62 NSCLC
OVCAR-5 ovarian = system: OVCAR-5 ovarian
T-47D breast = system: T-47D breast
PC-3 prostate = system: PC-3 prostate
M19-MEL melanoma = system: M19-MEL melanoma
MDA-N = system: MDA-N
SK-MEL-5 melanoma = system: SK-MEL-5 melanoma
MCF7 breast = system: MCF7 breast
MDA-MB-435 = system: MDA-MB-435
LOX IMVI melanoma = system: LOX IMVI melanoma
DU-145 prostate = system: DU-145 prostate
SNB-78 CNS = system: SNB-78 CNS
IGROV1 ovarian = system: IGROV1 ovarian
MDA-MB-231 breast = system: MDA-MB-231 breast
A498 renal = system: A498 renal
BT-549 breast = system: BT-549 breast
HS 578T breast = system: HS 578T breast
NCI/ADR-RES ovarian = system: NCI/ADR-RES ovarian
SK-OV-3 ovarian = system: SK-OV-3 ovarian

**Q.** `O=C1c2ccccc2C(=O)c2[nH]c(Cc3ccccc3F)nc21` was tested. Which TGI (SF-268 CNS) did it give?
**A.** Its TGI is greater than 100 µM.

**Q.** What about the TGI (SK-MEL-28 melanoma) of the same molecule?
**A.** The TGI was greater than 100 µM.

**Q.** What about the TGI (CAKI-1 renal) of the same molecule?
**A.** The TGI was greater than 100 µM.

**Q.** And the TGI (HT29 colon)?
**A.** The TGI was greater than 100 µM.

**Q.** And the TGI (NCI-H522 lung)?
**A.** Its TGI is 70.9 µM.

**Q.** And the TGI (DMS 273 small cell lung)?
**A.** The TGI was greater than 100 µM.

**Q.** And the TGI (KM12 colon)?
**A.** Its TGI is greater than 100 µM.

**Q.** And the TGI (SN12C renal)?
**A.** Its TGI is greater than 100 µM.

**Q.** What about the TGI (COLO 205 colon) of the same molecule?
**A.** The TGI was greater than 100 µM.

**Q.** And the TGI (SK-MEL-2 melanoma)?
**A.** The TGI was greater than 100 µM.

**Q.** And the TGI (HOP-92 NSCLC)?
**A.** Its TGI is greater than 100 µM.

**Q.** And the TGI (XF 498 CNS)?
**A.** Its TGI is greater than 100 µM.

**Q.** What about the TGI (SNB-75 CNS) of the same molecule?
**A.** The TGI was greater than 100 µM.

**Q.** What about the TGI (ACHN renal) of the same molecule?
**A.** Its TGI is greater than 100 µM.

**Q.** And the TGI (OVCAR-4 ovarian)?
**A.** Its TGI is greater than 100 µM.

**Q.** What about the TGI (UO-31 renal) of the same molecule?
**A.** Its TGI is greater than 100 µM.

**Q.** What about the TGI (U251 CNS) of the same molecule?
**A.** The TGI was greater than 100 µM.

**Q.** What about the TGI (UACC-257 melanoma) of the same molecule?
**A.** The TGI was greater than 100 µM.

**Q.** And the TGI (NCI-H460 lung)?
**A.** The TGI was greater than 100 µM.

**Q.** What about the TGI (K-562 leukemia) of the same molecule?
**A.** The TGI was greater than 100 µM.

**Q.** And the TGI (TK-10 renal)?
**A.** The TGI was 88.3 µM.

**Q.** What about the TGI (MOLT-4 leukemia) of the same molecule?
**A.** Its TGI is greater than 100 µM.

**Q.** And the TGI (DMS 114 small cell lung)?
**A.** The TGI was greater than 100 µM.

**Q.** And the TGI (SR leukemia)?
**A.** The TGI was greater than 100 µM.

**Q.** And the TGI (RXF 393 renal)?
**A.** The TGI was 75.5 µM.

**Q.** What about the TGI (786-0 renal) of the same molecule?
**A.** Its TGI is greater than 100 µM.

**Q.** What about the TGI (M14 melanoma) of the same molecule?
**A.** Its TGI is greater than 100 µM.

**Q.** What about the TGI (MALME-3M melanoma) of the same molecule?
**A.** Its TGI is greater than 100 µM.

**Q.** What about the TGI (SW-620 colon) of the same molecule?
**A.** The TGI was greater than 100 µM.

**Q.** And the TGI (EKVX NSCLC)?
**A.** Its TGI is greater than 100 µM.

**Q.** And the TGI (SF-295 CNS)?
**A.** Its TGI is greater than 100 µM.

**Q.** And the TGI (NCI-H226 lung)?
**A.** Its TGI is greater than 100 µM.

**Q.** And the TGI (LXFL 529 NSCLC)?
**A.** Its TGI is greater than 100 µM.

**Q.** And the TGI (HL-60(TB) leukemia)?
**A.** Its TGI is greater than 100 µM.

**Q.** What about the TGI (KM20L2 colon) of the same molecule?
**A.** The TGI was greater than 100 µM.

**Q.** And the TGI (HCC-2998 colon)?
**A.** The TGI was greater than 100 µM.

**Q.** What about the TGI (DLD-1 colon) of the same molecule?
**A.** Its TGI is 82.5 µM.

**Q.** What about the TGI (UACC-62 melanoma) of the same molecule?
**A.** Its TGI is greater than 100 µM.

**Q.** What about the TGI (NCI-H23 lung) of the same molecule?
**A.** The TGI was greater than 100 µM.

**Q.** And the TGI (CCRF-CEM leukemia)?
**A.** Its TGI is greater than 100 µM.

**Q.** And the TGI (OVCAR-8 ovarian)?
**A.** The TGI was greater than 100 µM.

**Q.** What about the TGI (RPMI-8226 leukemia) of the same molecule?
**A.** Its TGI is greater than 100 µM.

**Q.** What about the TGI (HCT-15 colon) of the same molecule?
**A.** The TGI was greater than 100 µM.

**Q.** What about the TGI (HOP-18 NSCLC) of the same molecule?
**A.** Its TGI is greater than 100 µM.

**Q.** What about the TGI (HCT-116 colon) of the same molecule?
**A.** Its TGI is greater than 100 µM.

**Q.** And the TGI (A549 NSCLC)?
**A.** Its TGI is greater than 100 µM.

**Q.** What about the TGI (SNB-19 CNS) of the same molecule?
**A.** The TGI was greater than 100 µM.

**Q.** And the TGI (OVCAR-3 ovarian)?
**A.** Its TGI is 39 µM.

**Q.** And the TGI (SF-539 CNS)?
**A.** Its TGI is 91.1 µM.

**Q.** What about the TGI (HOP-62 NSCLC) of the same molecule?
**A.** Its TGI is greater than 100 µM.

**Q.** What does the source list for `COc1ccc(NC(=O)CSc2nnc(-c3ccc(N=Cc4ccc(Cl)cc4)cc3)o2)cc1`?
**A.** TGI (SF-268 CNS): > 64.7 µM; TGI (OVCAR-5 ovarian): > 100 µM; TGI (SK-MEL-28 melanoma): > 100 µM; TGI (T-47D breast): > 100 µM; TGI (HT29 colon): > 100 µM; TGI (NCI-H522 lung): 96.6 µM; TGI (DMS 273 small cell lung): 79.6 µM; TGI (KM12 colon): > 80.9 µM; TGI (SN12C renal): 56.8 µM; TGI (PC-3 prostate): > 100 µM; TGI (COLO 205 colon): 44.9 µM; TGI (M19-MEL melanoma): 68.1 µM; TGI (MDA-N): > 100 µM; TGI (SK-MEL-2 melanoma): 45.8 µM; TGI (SK-MEL-5 melanoma): > 100 µM; TGI (MCF7 breast): > 100 µM; TGI (HOP-92 NSCLC): 71.4 µM; TGI (XF 498 CNS): 59.2 µM; TGI (SNB-75 CNS): > 86.7 µM; TGI (ACHN renal): > 86.9 µM; TGI (OVCAR-4 ovarian): > 100 µM; TGI (MDA-MB-435): > 100 µM; TGI (LOX IMVI melanoma): 31.9 µM; TGI (UO-31 renal): > 100 µM; TGI (DU-145 prostate): > 100 µM; TGI (U251 CNS): > 100 µM; TGI (UACC-257 melanoma): > 96.7 µM; TGI (NCI-H460 lung): > 100 µM; TGI (K-562 leukemia): > 100 µM; TGI (TK-10 renal): > 100 µM; TGI (MOLT-4 leukemia): > 70.2 µM; TGI (DMS 114 small cell lung): 80.1 µM; TGI (SR leukemia): 61.2 µM; TGI (RXF 393 renal): > 100 µM; TGI (SNB-78 CNS): 77.3 µM; TGI (786-0 renal): > 100 µM; TGI (M14 melanoma): > 96.3 µM; TGI (MALME-3M melanoma): > 100 µM; TGI (SW-620 colon): > 100 µM; TGI (EKVX NSCLC): > 100 µM; TGI (IGROV1 ovarian): > 100 µM; TGI (SF-295 CNS): > 100 µM; TGI (NCI-H226 lung): > 76.3 µM; TGI (LXFL 529 NSCLC): > 100 µM; TGI (MDA-MB-231 breast): > 100 µM; TGI (HL-60(TB) leukemia): > 48.8 µM; TGI (A498 renal): > 100 µM; TGI (KM20L2 colon): > 100 µM; TGI (HCC-2998 colon): > 100 µM; TGI (UACC-62 melanoma): > 100 µM; TGI (NCI-H23 lung): > 93.5 µM; TGI (BT-549 breast): > 100 µM; TGI (CCRF-CEM leukemia): > 82.7 µM; TGI (OVCAR-8 ovarian): > 100 µM; TGI (RPMI-8226 leukemia): > 80.7 µM; TGI (HS 578T breast): > 100 µM; TGI (HCT-15 colon): 29.1 µM; TGI (HOP-18 NSCLC): 68.1 µM; TGI (HCT-116 colon): > 49.5 µM; TGI (NCI/ADR-RES ovarian): > 100 µM; TGI (SK-OV-3 ovarian): > 100 µM; TGI (A549 NSCLC): > 100 µM; TGI (SNB-19 CNS): > 100 µM; TGI (OVCAR-3 ovarian): 73.2 µM; TGI (HOP-62 NSCLC): > 88.6 µM

— PubChem BioAssay (NCI)
